Measurements published in US4057636A, “Antihypertensive pyridylguanidine compounds” (Leo Pharmaceutical Products Ltd. A/S, priority 1974, dated 1977).

Experiments:
[1] = test system: normotensive anaesthetized rats; test: Hypotensive activity in normotensive anaesthetized rats; type: in vivo, rat (Sprague Dowley); settings: for Δ mean blood pressure: at time of peak effect
Experimental: Male albino Sprague Dowley strain rats were anaesthetized with pentobarbital and fastened to rat boards in a supine position. The left carotid artery was exposed and cannulated with polyethylene cannula connected through a Statham pressure transducer to a Grass Polygraph Recorder. […] The compound was dissolved in dilute HCl. […] Table 1 summarizes the effects on mean blood pressure at the time of peak effect.

[2] = test system: conscious normotensive dogs; test: Hypotensive activity in conscious normotensive dogs; type: in vivo, dog (mongrel); settings: 0.1 mg/kg oral
Experimental: Hypotensive activity in conscious normotensive dogs
Mongrel dogs of both sexes, fasting 16 hours before the experiment were used. […] The compounds were orally administered in gelatine capsules.

[3] = test system: vasopressor response to norepinephrine; test: Reduction of vasopressor response to norepinephrine (NE) in cats; type: in vivo, cat; settings: 0.01 mg/kg i.v.; norepinephrine hydrochloride 1 meg/kg i.v.
Experimental: (§1) Hypotensive action and various cardiovascular and autonomic responses in cats.
(§2) Cats of both sexes anaestetized with pentobarbital […]. were used. The left carotid artery was exposed and cannulated with polyethylene cannula connected through a Statham pressure transducer to a Grass Polygraph Recorder. […] The compound was administered dissolved in dilute HCl in a volume of 0.4 ml. […] Both procedures are known to produce pressor effects. […]

[4] = test system: common carotid artery occlusion pressor response; test: Reduction of pressor response to common carotid artery occlusion (CO) in cats; type: in vivo, cat; settings: 0.01 mg/kg i.v.; carotid artery occlusion 45 secs
Experimental: as §1, §2

cats = test: Hypotensive action in anaesthetized cats (ΔBP, ΔHR); type: in vivo, cat
Experimental: as §1, §2

nictitating membrane = test: Reduction of contraction of nictitating membrane, pre- and postganglionic stimulation, in cats; type: in vivo, cat; settings: for Nict. Membr. post % reduction: postganglionic stimulation (3 V, 1 msec, 5 secs); for Nict. Membr. pre % reduction: preganglionic stimulation (3 V, 1 msec, 40 Hz, 5 secs)
Experimental: as §1, §2

[5] = test system: conscious spontaneously hypertensive rats; test: Antihypertensive activity in conscious spontaneously hypertensive rats; type: in vivo, rat (spontaneously hypertensive Okamoto strain)
Experimental: Male albino rats, spontaneously hypertensive Okamoto strain, fasting 16 hours before the experiments were used. The conscious animals were restrained in a plastic cage and a cuff was secured around the tail. The cuff was connected with an electronic blood pressure recorder. The systolic blood pressure and the heart rate were measured before and 2, 4, 6, and 24 hours after the administration of compounds. The compounds were suspended or dissolved in carboxymethylcellulose 0.5%. […] There are also included, for comparison, the results obtained under the same experimental conditions with some known antihypertensive drugs, and the approximate oral LD50 in mice are stated.

blood pressure = settings: J. Med. Chem. Vol. 11, p. 811 (1968); cited from earlier work
[6] = 0.01 mg/kg i.v., line with NE/CO
[7] = 0.01 mg/kg i.v., line with nictitating membrane
[8] = 0.05 mg/kg i.v., line with nictitating membrane

SMILES: CC(C)(C)NC(=NC#N)Nc1cccnc1 [P 1060, N-tert-Butyl-N"-cyano-N'-3-pyridylcuanidine]
- duration ([1]; 0.002 mg/kg i.v.): 3 min
- Δ mean blood pressure ([1]; 0.002 mg/kg i.v.): -70 mm Hg
- duration ([1]; 0.005 mg/kg i.v.): 12 min
- Δ mean blood pressure ([1]; 0.005 mg/kg i.v.): -70 mm Hg
- duration ([1]; 0.010 mg/kg i.v.): > 45 min
- Δ mean blood pressure ([1]; 0.010 mg/kg i.v.): -85 mm Hg
- BP ([2]; Dog I, 1 hour): 75 mm Hg
- HR ([2]; Dog I, 1 hour): 152 beats/minute
- UV ([2]; Dog I, 1 hour): 2.3 mL
- BP ([2]; Dog I, 2 hours): 80 mm Hg
- HR ([2]; Dog I, 2 hours): 180 beats/minute
- UV ([2]; Dog I, 2 hours): 7.1 mL
- BP ([2]; Dog I, 3 hours): 90 mm Hg
- HR ([2]; Dog I, 3 hours): 152 beats/minute
- UV ([2]; Dog I, 3 hours): 11 mL
- BP ([2]; Dog I, 4 hours): 120 mm Hg
- HR ([2]; Dog I, 4 hours): 140 beats/minute
- UV ([2]; Dog I, 4 hours): 22 mL
- BP ([2]; Dog II, 1 hour): 100 mm Hg
- HR ([2]; Dog II, 1 hour): 112 beats/minute
- UV ([2]; Dog II, 1 hour): 8 mL
- BP ([2]; Dog II, 2 hours): 95 mm Hg
- HR ([2]; Dog II, 2 hours): 128 beats/minute
- UV ([2]; Dog II, 2 hours): 12.5 mL
- BP ([2]; Dog II, 3 hours): 95 mm Hg
- HR ([2]; Dog II, 3 hours): 104 beats/minute
- UV ([2]; Dog II, 3 hours): 22.5 mL
- BP ([2]; Dog II, 4 hours): 105 mm Hg
- HR ([2]; Dog II, 4 hours): 100 beats/minute
- UV ([2]; Dog II, 4 hours): 16 mL
- BP ([2]; Dog III, 1 hour): 65 mm Hg
- HR ([2]; Dog III, 1 hour): 172 beats/minute
- UV ([2]; Dog III, 1 hour): 22 mL
- BP ([2]; Dog III, 2 hours): 115 mm Hg
- HR ([2]; Dog III, 2 hours): 104 beats/minute
- UV ([2]; Dog III, 2 hours): 20 mL
- BP ([2]; Dog III, 3 hours): 110 mm Hg
- HR ([2]; Dog III, 3 hours): 92 beats/minute
- UV ([2]; Dog III, 3 hours): 12 mL
- BP ([2]; Dog III, 4 hours): 125 mm Hg
- HR ([2]; Dog III, 4 hours): 88 beats/minute
- UV ([2]; Dog III, 4 hours): 14 mL
- NE % reduction [3]: 50%
- CO % reduction [4]: 100%
- ΔBP (cats; [6]): 90 mm Hg
- ΔHR (cats; [6]): 20 beats/min.
- ΔBP (cats; [7]): 90 mm Hg
- ΔHR (cats; [7]): 35 beats/min.
- ΔBP (cats; [8]): 110 mm Hg
- ΔHR (cats; [8]): 30 beats/min.
- Nict. Membr. post % reduction (nictitating membrane; 0.01 mg/kg i.v.): 12%
- Nict. Membr. pre % reduction (nictitating membrane; 0.01 mg/kg i.v.): 20%
- Nict. Membr. post % reduction (nictitating membrane; 0.05 mg/kg i.v.): 21%
- Nict. Membr. pre % reduction (nictitating membrane; 0.05 mg/kg i.v.): 12%
- BP ([5]; 0.01 mg/kg, 2 hours): 141 mm Hg
- HR ([5]; 0.01 mg/kg, 2 hours): 419 beats/minute
- BP ([5]; 0.01 mg/kg, 4 hours): 145 mm Hg
- HR ([5]; 0.01 mg/kg, 4 hours): 423 beats/minute
- BP ([5]; 0.01 mg/kg, 6 hours): 146 mm Hg
- HR ([5]; 0.01 mg/kg, 6 hours): 428 beats/minute
- BP ([5]; 0.01 mg/kg, 24 hours): 176 mm Hg
- HR ([5]; 0.01 mg/kg, 24 hours): 402 beats/minute
- BP ([5]; 0.05 mg/kg, 2 hours): 126 mm Hg
- HR ([5]; 0.05 mg/kg, 2 hours): 422 beats/minute
- BP ([5]; 0.05 mg/kg, 4 hours): 132 mm Hg
- HR ([5]; 0.05 mg/kg, 4 hours): 420 beats/minute
- BP ([5]; 0.05 mg/kg, 6 hours): 127 mm Hg
- HR ([5]; 0.05 mg/kg, 6 hours): 410 beats/minute
- BP ([5]; 0.05 mg/kg, 24 hours): 170 mm Hg
- HR ([5]; 0.05 mg/kg, 24 hours): 386 beats/minute
- BP ([5]; 0.1 mg/kg, 2 hours): 118 mm Hg
- HR ([5]; 0.1 mg/kg, 2 hours): 420 beats/minute
- BP ([5]; 0.1 mg/kg, 4 hours): < 100 mm Hg
- HR ([5]; 0.1 mg/kg, 4 hours): 426 beats/minute
- BP ([5]; 0.1 mg/kg, 6 hours): 114 mm Hg
- HR ([5]; 0.1 mg/kg, 6 hours): 422 beats/minute
- BP ([5]; 0.1 mg/kg, 24 hours): 170 mm Hg
- HR ([5]; 0.1 mg/kg, 24 hours): 408 beats/minute
- BP ([5]; 0.5 mg/kg, 2 hours): < 100 mm Hg
- BP ([5]; 0.5 mg/kg, 4 hours): < 100 mm Hg
- BP ([5]; 0.5 mg/kg, 6 hours): < 100 mm Hg
- BP ([5]; 0.5 mg/kg, 24 hours): 153 mm Hg
- HR ([5]; 0.5 mg/kg, 24 hours): 413 beats/minute
- BP ([5]; 1.0 mg/kg, 2 hours): < 100 mm Hg
- BP ([5]; 1.0 mg/kg, 4 hours): < 100 mm Hg
- BP ([5]; 1.0 mg/kg, 6 hours): < 100 mm Hg
- BP ([5]; 1.0 mg/kg, 24 hours): 126 mm Hg
- HR ([5]; 1.0 mg/kg, 24 hours): 405 beats/minute

SMILES: CCC(C)(C)NC(=N)NC#N [Guancydine, N-cyano-N'-tert-pentylguanidine]
- hypotensive effect (literature) (blood pressure): the most potent of the compounds of the above-mentioned literature
